In patent US11969433B2, “Compositions and methods for muscle regeneration using prostaglandin E2” (The Board of Trustees of the Leland Stanford Junior …, priority 2016, dated 2024):

What was measured:
aged MuSCs = experiment: Aged MuSC numbers after acute 24 hr treatment, hydrogel culture; type: cell-based, mouse; settings: 1-day pulse; PGE2 10 ng/ml or SW033291 1 μM; assayed day 7
Method: Following isolation, we resuspended MuSCs in myogenic cell culture medium containing DMEM/F10 (50:50), 15% FBS, 2.5 ng ml^−1 fibroblast growth factor-2 (FGF-2 also known as bFGF) and 1% penicillin-streptomycin. We seeded MuSC suspensions at a density of 500 cells per cm^2 surface area. We maintained cell cultures at 37° C. in 5% CO2 and changed medium daily. […]
To assay proliferation, we used three different assays (hemocytometer, VisionBlue, and EdU). […] For hemocytometer cell number count, we collected cells at indicated timepoints by incubation with 0.5% trypsin in PBS for 5 min at 37° C. and quantified them using a hemocytometer at least 3 times. Additionally, we used the VisionBlue Quick Cell Viability Fluorometric Assay Kit (BioVision, catalog #K303) as a readout for cell growth in culture. Briefly, we incubated MuSCs with 10% VisionBlue in culture medium for 3 h, and measured fluorescence intensity on a fluorescence plate reader (Infinite M1000 PRO, Tecan) at Ex=530-570 nm, Em=590-620 nm. […] We quantified EdU positive cells using the MetaMorph Image Analysis software (Molecular Devices). Data analyses were blinded, where researchers performing cell scoring were unaware of the treatment condition given to sample groups analyzed.

MuSCs [1] = experiment: MuSC transplantation into injured TA muscle, engraftment by bioluminescence imaging; type: in vivo, mouse; settings: cultured MuSCs, acute 1-day PGE2, 250 cells transplanted day 7 into NOD-SCID mice
MuSCs [2] = experiment: Quantitative RT-PCR of MuSC transcripts; type: cell-based, mouse
Text: We isolated RNA from MuSCs using the RNeasy Micro Kit (Qiagen). For muscle samples, we snap froze the tissue in liquid nitrogen, homogenized the tissues using a mortar and pestle, followed by syringe and needle trituration, and then isolated RNA using Trizol (Invitrogen). We reverse-transcribed cDNA from total mRNA from each sample using the SensiFAST™ cDNA Synthesis Kit (Bioline). We subjected cDNA to RT-PCR using SYBR Green PCR Master Mix (Applied Biosystems) or TaqMan Assays (Applied Biosystems) in an ABI 7900HT Real-Time PCR System (Applied Biosystems). We cycled samples at 95° C. for 10 min and then 40 cycles at 95° C. for 15 s and 60° C. for 1 min. To quantify relative transcript levels, we used 2-ΔΔCt to compare treated and untreated samples and expressed the results relative to Gapdh. For SYBR Green qRT-PCR, we used the following primer sequences: Gapdh. forward 5′-[…]-3′ (SEQ ID NO: 1), reverse 5′-CCCTTTTGGCTCCACCCT-3′ (SEQ ID NO: 2); Hpgd, forward 5′-[…]-3′ (SEQ ID NO: 3), reverse 5′-[…]-3′ (SEQ ID NO: 4); Ptges, forward 5′-GCTGTCATCACAGGCCAGA-3′ (SEQ ID NO: 5), reverse 5′-[…]-3′ (SEQ ID NO: 6); Ptges2, forward 5′-[…]-3′ (SEQ ID NO: 7), reverse 5′-[…]-3′ (SEQ ID NO: 8); Ptger1, forward 5′ GTGGTGTCGTGCATCTGCT-3′ (SEQ ID NO: 9), reverse, 5′ […]-3′ (SEQ ID NO: 10), and Ptger2, forward 5′-[…]-3′ (SEQ ID NO: 11), reverse 5′-[…]-3′ (SEQ ID NO: 12). TaqMan Assays (Applied Biosystems) were used to quantify Pax7. Myogenin. Slco2a1 (PGT), Ptger3 and Ptger4 in samples according to the manufacturer instructions with the TaqMan Universal PCR Master Mix reagent kit (Applied Biosystems). Transcript levels were expressed relative to Gapdh levels. For SYBR Green qPCR, Gapdh qPCR was used to normalize input cDNA samples. For Taqman qPCR, multiplex qPCR enabled target signals (FAM) to be normalized individually by their internal Gapdh signals (VIC).

Question: With CCCCC[C@H](O)/C=C/[C@H]1[C@H](O)CC(=O)[C@@H]1C/C=C\CCCC(=O)O [PGE2, prostaglandin E2] as the compound, how does the “proliferation of aged MuSCs” value (aged MuSCs) read?
Answer: increase

Question: And the “young MuSC regenerative capacity assessed by BLI” value (MuSCs [1])?
Answer: enhanced by an order of magnitude

Question: And the “transcript levels of Ptger1 and Ptger4” value (MuSCs [2]; after 24 hr PGE2 treatment of MuSCs)?
Answer: upregulated

Question: What about the “Pax7 expression in aged MuSCs” value (MuSCs [2]; aged MuSCs, 1-day pulse) of the same compound?
Answer: maintenance
